Test results taken from patent EP0528486A2, “Non-substrate inhibitors of farnesyl protein transferase” (MERCK & CO. INC., priority 1991, dated 1993).
Where a SMILES comes first, the peptide text is derived from it.

How the values were obtained:
Format in all cases: biochemical, bovine
[1] = target: T1, farnesyl-protein transferase (Bos taurus, UniProt P29702+P49355); assay: Tetrapeptides tested as farnesylation substrates (TLC / autoradiography); details: for Farnesylation Substrate: peptide 200 µM, partially pure bovine farnesyl-protein transferase, 0.5 µM [3H] FPP, 30 min. at 30°C
T1 construct: partially pure bovine brain farnesyl-protein transferase; from tissue; host or cells: bovine brain (cerebral lobes)
Source text: When a peptide was used as the acceptor substrate, there were two changes to the assay: (1) Ras protein was excluded and, (2) the reactions were stopped by the additon of one tenth volume of 0.5 M EDTA. A portion of the reaction mixture was spotted onto a TLC plate (silica gel 60 thin layer chromatography plates (20 cm x 20 cm, 0.25 mm layer thickness) were from E. Merck (Darrnstadt) and eluted with either ethyl acetate:pyridine: acetic acid:water (10:5:1:3) or n-propanol:water (7:3) elution systems. After drying under vacuum, the plates were sprayed with En³Hance and exposed to X-ray film at -70°C.
CAAX tetrapeptides and other tetrapeptides including Cys-Xaa¹-Xaa²-Xaa³-NRR¹ were tested as farnesylation substrates using [³H]FPP and partially pure bovine brain farnesyl-protein transferase. […] Thin layer chromatography (TLC) conditions were developed which resolved the substrates farnesyl diphosphate (Rf = 0.06) and CVLS (Rf = 0.28) and product S-farnesyl-CVLS (Rf = 0.58). These Rf values reflect TLC conditions using ethylacetate:pyridine: acetic acid:water (10:5:1:3) as the eluent. In another elution system, n-propanol:water (7:3), farnesyl-diphosphate (Rf= 0.18) was readily seperated from farnesylated tetrapeptides (examples: CAIS (Rf=0.84) and CAIM (Rf=0.83)). Quenched reaction mixtures containing peptide, farnesyl-diphosphate and farnesyl-protein transferase were separated by TLC followed by visualization of the radioactive species by autoradiography. […] Control peptides having a Cys to Ser substitution were not substrates.
The indicated peptides at 200 µM were incubated with partially pure bovine farnesyl-protein transferase and 0.5 µM [3H] FPP for 30 min. at 30°C. Autoradiographic exposure time was overnight (15-20 hr).

[2] = target: T1, farnesyl-protein transferase; assay: Inhibition of Ras farnesylation in vitro; details: Ras-CVLS at 3.5 µM, 0.25 µM [³H]FPP, partially purified enzyme; average of 2-5 determinations; read-out: IC₅₀
Protocol: Polyisoprenylation of Ras- [³H]Farnesyl diphosphate (FPP) (20 Ci/mmol) was purchased from New England Nuclear. Farnesyl-protein transferase activity assays were carried out at 30°C unless noted otherwise. A typical reaction contained (in a final volume of 50 µl):[³H]farnesyl diphosphate, Ras protein (3.5µM), 50 mM HEPES, pH 7.5, 5 mM MgCl₂ 5 mM dithiothreitol and farnesyl-protein transferase. After thermally pre-equilibrating the assay mixture in the absence of enzyme, reactions were initiated by the addition of farnesyl-protein transferase and stopped at timed intervals by the addition of 1M HCl in ethanol (1 mL). The quenched reactions were allowed to stand for 15 minutes (to complete the precipitation process). After adding 2 mL of 100% ethanol, the reactions were vacuum-filtered through Whatmann GF/C filters. Filters were washed four time with 2 mL aliquots of 100% ethanol, mixed with scintillation fluid (10 mL) and then counted in a Beckmann LS3801 scintillation couter.
For inhibition studies, assays were run as described above, except putative inhibitors were added at the concentration indicated, IC₅₀ values were determined with both farnesyl-protein transferase substrates at their KM concentrations. The KM for Ras protein substrate having the CAAX sequence, CVLS, is 3.5 µM and the KM for FPP is 0.25µM.
Ras proteins used as substrates were expressed in E. coli and purified. […]

[3] = target: T1, farnesyl-protein transferase; assay: Mechanism of inhibition using homogenous, pure farnesyl-protein transferase
Protocol: To prepare pure enzyme, the nonapeptide, […], was covalently bound to Affigel-10 under anhydrous conditions as described by the manufacturer (15 µmol peptide per 1 mL of Affigel-10). Unreacted resin was treated with ethanolamine. After multiple passes of ω-aminooctyl-agarose-column-purified protein over the peptide column, the column was washed and eluted as described by Reiss, et al., (1990) ibid, to recover farnesyl-protein transferase activity.

## CSCC[C@H](NC(=O)[C@H](Cc1ccccc1)NC(=O)[C@@H](NC(=O)[C@@H](N)CS)C(C)C)C(N)=O [CVFM-NH₂, Cys-Val-Phe-Met-NH₂] (H-CVFM-NH2)
[1]
  Farnesylation Substrate: - (< 1% conversion)
[2]
  IC50: 2.3 µM

## CC(C)C[C@H](NC(=O)[C@@H](NC(=O)[C@@H](N)CS)C(C)C)C(=O)N[C@@H](CO)C(N)=O [CVLS-NH₂, Cys-Val-Leu-Ser-NH₂] (H-CVLS-NH2)
[1]; [³H]FPP, partially pure bovine brain farnesyl-protein transferase
  farnesylation substrate (result in words, TLC autoradiography): do not serve as effective substrates
[1]
  Farnesylation Substrate: - (< 1% conversion)
[2]
  IC50: 16 µM
[3]
  mechanism of inhibition with respect to Ras-CVLS protein substrate: competitive inhibitor
  mechanism of inhibition with respect to farnesyl diphosphate: not a competitive inhibitor
